Laboratory results published in patent publication US10287305B2, “Substituted piperidine compound and use thereof” (Takeda Pharmaceutical Company Limited, priority 2016, dated 2019).

Target: human orexin type 2 receptor (hOX2R) (Homo sapiens (Human), UniProt O43614)
Test: Measurement of orexin type 2 receptor agonist activity (Experimental Example 2-1, FLIPR TETRA, intracellular Ca2+)
Type: cell-based
Settings: CHO dhfr- cells expressing hOX2R, FLIPR TETRA, Fluo-4AM; for Emax: read-out: Emax (%)

human orexin type 2 receptor (hOX2R), sequence (O43614 whole entry): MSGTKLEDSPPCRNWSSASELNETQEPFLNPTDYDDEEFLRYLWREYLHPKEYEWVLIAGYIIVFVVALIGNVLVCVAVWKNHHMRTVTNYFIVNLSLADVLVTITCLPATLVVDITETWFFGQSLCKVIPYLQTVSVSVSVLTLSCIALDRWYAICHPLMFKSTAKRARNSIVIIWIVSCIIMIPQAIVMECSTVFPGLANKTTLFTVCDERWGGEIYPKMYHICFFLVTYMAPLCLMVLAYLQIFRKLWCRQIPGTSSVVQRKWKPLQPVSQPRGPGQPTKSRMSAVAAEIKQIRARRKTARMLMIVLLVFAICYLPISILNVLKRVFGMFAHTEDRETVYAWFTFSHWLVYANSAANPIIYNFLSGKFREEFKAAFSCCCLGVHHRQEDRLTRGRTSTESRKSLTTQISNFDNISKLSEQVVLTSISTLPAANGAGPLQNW

Row | Compound | EC50 [nM] | Emax [%]
1 | CS(=O)(=O)N[C@H]1CCCN(C(=O)C2CCC2)[C@H]1COC1CCN(c2ccccc2F)CC1 (relative stereo) [Example 223, N-(cis-1-(cyclobutylcarbonyl)-2-(((1-(2-fluorophenyl)piperidin-4-yl)oxy)methyl)piperidin-3-yl)methanesulfonamide] | 1100 | 110
2 | CS(=O)(=O)N[C@H]1CCCN(C(=O)C2CC2(F)F)[C@H]1COC1CCN(c2ccccc2F)CC1 (relative stereo) [Example 225, N-(cis-1-((2,2-difluorocyclopropyl)carbonyl)-2-(((1-(2-fluorophenyl)piperidin-4-yl)oxy)methyl)piperidin-3-yl)methanesulfonamide] | 1000 | 98
3 | CCOC(=O)N1CCC[C@H](NS(C)(=O)=O)[C@@H]1COC1CCN(c2ccccc2F)CC1 (relative stereo) [Example 228, ethyl cis-2-(((1-(2-fluorophenyl)piperidin-4-yl)oxy)methyl)-3-((methylsulfonyl)amino)piperidine-1-carboxylate] | 2100 | 89
4 | CC(C)CC(=O)N1CCC[C@H](NS(C)(=O)=O)[C@@H]1COC1CCN(c2ccccc2F)CC1 (relative stereo) [Example 230, N-(cis-2-(((1-(2-fluorophenyl)piperidin-4-yl)oxy)methyl)-1-(3-methylbutanoyl)piperidin-3-yl)methanesulfonamide] | 2600 | 80
5 | CS(=O)(=O)N[C@H]1CCCN(C(=O)C2CC(=O)C2)[C@H]1COC1CCN(c2ccccc2F)CC1 (relative stereo) [Example 233, N-(cis-2-(((1-(2-fluorophenyl)piperidin-4-yl)oxy)methyl)-1-((3-oxocyclobutyl)carbonyl)piperidin-3-yl)methanesulfonamide] | 5000 | 83
6 | CS(=O)(=O)N[C@H]1CCCN(C(=O)C2CCCCC2)[C@H]1COC1CCN(c2ccccc2F)CC1 (relative stereo) [Example 236, N-(cis-1-(cyclohexylcarbonyl)-2-(((1-(2-fluorophenyl)piperidin-4-yl)oxy)methyl)piperidin-3-yl)methanesulfonamide] | 1800 | 86

Further compounds by falling EC50, results first:

Row | EC50 [nM] | Emax [%] | Compound
7 | 3000 | 91 | CCC(=O)N1CCC[C@H](NS(C)(=O)=O)[C@@H]1COC1CCN(c2ccccc2F)CC1 (relative stereo) [Example 219, N-(cis-2-(((1-(2-fluorophenyl)piperidin-4-yl)oxy)methyl)-1-propionylpiperidin-3-yl)methanesulfonamide]
8 | 2400 | 102 | CCCC(=O)N1CCC[C@H](NS(C)(=O)=O)[C@@H]1COC1CCN(c2ccccc2F)CC1 (relative stereo) [Example 227, N-(cis-1-butyryl-2-(((1-(2-fluorophenyl)piperidin-4-yl)oxy)methyl)piperidin-3-yl)methanesulfonamide]
9 | 2200 | 86 | CS(=O)(=O)N[C@H]1CCCN(C(=O)CC2CC2)[C@H]1COC1CCN(c2ccccc2F)CC1 (relative stereo) [Example 226, N-(cis-1-(cyclopropylacetyl)-2-(((1-(2-fluorophenyl)piperidin-4-yl)oxy)methyl)piperidin-3-yl)methanesulfonamide]
10 | 1700 | 90 | CC(C)C(=O)N1CCC[C@H](NS(C)(=O)=O)[C@@H]1COC1CCN(c2ccccc2F)CC1 (relative stereo) [Example 224, N-(cis-2-(((1-(2-fluorophenyl)piperidin-4-yl)oxy)methyl)-1-isobutyrylpiperidin-3-yl)methanesulfonamide]
11 | 1500 | 85 | CS(=O)(=O)N[C@H]1CCCN(C(=O)C2CCCC2)[C@H]1COC1CCN(c2ccccc2F)CC1 (relative stereo) [Example 229, N-(cis-1-(cyclopentylcarbonyl)-2-(((1-(2-fluorophenyl)piperidin-4-yl)oxy)methyl)piperidin-3-yl)methanesulfonamide]
